Assay results: patent publication US10702592B2, “Peptides and combination of peptides for use in immunotherapy against NHL and other cancers” (Immatics Biotechnologies GmbH, priority 2016, dated 2020)

How the values were obtained:
CD8+ T cells = test: In vitro T-cell priming immunogenicity assay (aAPC with pMHC and anti-CD28, multimer staining); assay type: cell-based, human; settings: HLA-A*02 restricted peptides; percentage of positive wells and donors (among evaluable)
Text: In order to obtain information regarding the immunogenicity of the TUMAPs of the present invention, the inventors performed investigations using an in vitro T-cell priming assay based on repeated stimulations of CD8+ T cells with artificial antigen presenting cells (aAPCs) loaded with peptide/MHC complexes and anti-CD28 antibody.
In order to perform in vitro stimulations by artificial antigen presenting cells loaded with peptide-MHC complex (pMHC) and anti-CD28 antibody, the inventors first isolated CD8+ T cells from fresh HLA-A*02 leukapheresis products via positive selection using CD8 microbeads (Miltenyi Biotec, Bergisch-Gladbach, Germany) of healthy donors obtained from the University clinics Mannheim, Germany, after informed consent.
PBMCs and isolated CD8+ lymphocytes were incubated in T-cell medium (TCM) until use consisting of RPMI-Glutamax (Invitrogen, Karlsruhe, Germany) supplemented with 10% heat inactivated human AB serum (PAN-Biotech, Aidenbach, Germany), 100 U/ml Penicillin/100 μg/ml Streptomycin (Cambrex, Cologne, Germany), 1 mM sodium pyruvate (CC Pro, Oberdorla, Germany), 20 μg/ml Gentamycin (Cambrex). 2.5 ng/ml IL-7 (PromoCell, Heidelberg, Germany) and 10 U/ml IL-2 (Novartis Pharma, Nurnberg, Germany) were also added to the TCM at this step.
Generation of pMHC/anti-CD28 coated beads, T-cell stimulations and readout was performed in a highly defined in vitro system using four different pMHC molecules per stimulation condition and 8 different pMHC molecules per readout condition.
The purified co-stimulatory mouse IgG2a anti human CD28 Ab 9.3 (Jung et al., 1987) was chemically biotinylated using Sulfo-N-hydroxysuccinimidobiotin as recommended by the manufacturer (Perbio, Bonn, Germany). Beads used were 5.6 μm diameter streptavidin coated polystyrene particles (Bangs Laboratories, Illinois, USA).
800.000 beads/200 μl were coated in 96-well plates in the presence of 4×12.5 ng different biotin-pMHC, washed and 600 ng biotin anti-CD28 were added subsequently in a volume of 200 μl. Stimulations were initiated in 96-well plates by co-incubating 1×10^6 CD8+ T cells with 2×10^5 washed coated beads in 200 μl TCM supplemented with 5 ng/ml IL-12 (PromoCell) for 3 days at 37° C. Half of the medium was then exchanged by fresh TCM supplemented with 80 U/ml IL-2 and incubating was continued for 4 days at 37° C. This stimulation cycle was performed for a total of three times. For the pMHC multimer readout using 8 different pMHC molecules per condition, a two-dimensional combinatorial coding approach was used as previously described (Andersen et al., 2012) with minor modifications encompassing coupling to 5 different fluorochromes. Finally, multimeric analyses were performed by staining the cells with Live/dead near IR dye (Invitrogen, Karlsruhe, Germany), CD8-FITC antibody clone SK1 (BD, Heidelberg, Germany) and fluorescent pMHC multimers. For analysis, a BD LSRII SORP cytometer equipped with appropriate lasers and filters was used. Peptide specific cells were calculated as percentage of total CD8+ cells. Evaluation of multimeric analysis was done using the FlowJo software (Tree Star, Oregon, USA). In vitro priming of specific multimer+CD8+ lymphocytes was detected by comparing to negative control stimulations.

HLA-A*02:01 = HLA-A*02:01 (Homo sapiens, UniProt P04439, D140Y/D185E/D98H/E176V/E277Q/G131W/G231S/I119V/I121R/I166T/I218V/L300P/L318F/N151K/N90K/P208A/P217A/Q86G/Q94H/R138H/R169H/T345S); test: MHC binding assay (UV-ligand exchange, beta2m ELISA); settings: binding to HLA-A*02:01, UV-ligand exchange
Procedure, shortened: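 Exchange yield is an ELISA read-out: complexes diluted 100-fold, captured on streptavidin plates, detected with HRP anti-β2m and TMB at 450 nm. Standard curve from refolded HLA-A*02:01/MLA-001 (15-500 ng/ml); complexes made by UV-triggered displacement of a photolabile ligand by test peptide.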

Substance	Peptide exchange (MHC class I binding score, peptide exchange yield) (HLA-A*02:01)	Wells positive [%] (CD8+ T cells)
253 (YSDDDVPSV; listed as Homo sapiens) [compound 253]	“++++” (≥75% = ++++)	“+++” (50% - 69% = +++)
254 (FLYSETWNI; listed as Homo sapiens) [compound 254]	“++++” (≥75% = ++++)	“+” (<20% = +)
256 (ALQETPPQV; listed as Homo sapiens) [compound 256]	“+++” (≥50 = +++)	“+” (<20% = +)
258 (RIYPFLLMV; listed as Homo sapiens) [compound 258]	“+++” (≥50 = +++)	“++++” (≥70% = ++++)
260 (RLDEAFDFV; listed as Homo sapiens) [compound 260]	“++++” (≥75% = ++++)	“+” (<20% = +)

Continued, in another order:

Peptide exchange (MHC class I binding score, peptide exchange yield) (HLA-A*02:01)	Substance	Wells positive [%] (CD8+ T cells)
“++++” (≥75% = ++++)	261 (FLPETRIMTSV; listed as Homo sapiens) [compound 261]	“+” (<20% = +)
“++++” (≥75% = ++++)	262 (LMGPVVHEV; listed as Homo sapiens) [compound 262]	“++” (20% - 49% = ++)
